Measured values taken from patent US6710084B2, “Inhibition of TNFα-initiated neutrophil response” (Brigham and Women's Hospital, priority 1999, dated 2004).

What was measured:
human PMN = experiment: TNFα-stimulated superoxide anion generation by human PMN (cytochrome C reduction); assay type: cell-based; conditions: for inhibition of TNFα-stimulated superoxide anion generation: 10 nM compound, 5 min, then TNFα 50 ng/ml
Procedure: Human PMN were incubated with either vehicle alone or indicated concentrations of LXA4, 15 R/S-methyl-LXA4 or 16-phenoxy-LXA4 for 5 min and then with TNFα (50 ng/ml) for an additional 10 min. Values are the mean±SEM for LXA4 (n=3), 15 R/S-methyl-LXA4 (n=4) or 16-phenoxy-LXA4 (n=3).
Venous blood from healthy donors was collected using sterile conditions using acid citrate dextrose (ACD) as an anticoagulant, and PMN were isolated as in (15). PMN were suspended in cold (4° C.) Hank's medium (supplemented with 1.6 mM Ca^++, 0.1% FCS, 2 mM L-glutamine, 1% penicillin, and 2% streptomycin, pH 7.4). […] To examine superoxide production, PMN (1.0×10^6/ml) were placed at 37° C. (3 min) and then exposed to either vehicle (0.1% ethanol) or synthetic LXA4, 15R/S-methyl LXA4 or 16-phenoxy-LXA4 for 5 min at 37° C. Before adding TNFα (50 ng/ml), PMN were incubated with cytochrome C (0.7 mg/ml) for 10 min at 37° C. […] reduction of cytochrome C was terminated by rapidly placing tubes in an ice-water bath. The extent of cytochrome C reduction in each supernatant was determined at 550 nm in reference to control values obtained when superoxide dismutase was added before a stimulus or vehicle control. Cytochrome C reduction was quantitated using the extinction coefficient of 21.1/mmol/L.
TNFα, although a modest agonist of O2^−generation by human PMN, is a physiologically relevant stimulus for the generation of reactive oxygen species (ROS) by human PMN that can play critical roles in local tissue injury during both inflammation and reperfusion (Tsujii, M., S. Kawano, S. Tsuji, H. Sawaoka, M. Hori, and R. N. DuBois. 1998. Cyclooxygenase regulates angiogenesis induced by colon cancer cells. Cell 93:705-716; Shibuya, H., N. Ohkohchi, S. Tsukamoto, and S. Satomi. 1997. Tumor necrosis factor-induced, superoxide-mediated neutrophil accumulation in cold ischemic/reperfused rat liver. Hepatology 26:113-120; Jaeschke, H., A. Farhood, and C. W. Smith. 1990. Neutrophils contribute to ischemia/reperfusion injury in rat liver in vivo. FASEB J. 4:3355-3359). In FIG. 1, the impact of LXA4 and ATL related bioactive stable analogs were evaluated on TNFα stimulated superoxide anion production. […] 15R/S-methyl-LXA4 covers both LXA4 and ATL in structure, and 16-phenoxy-LXA4 is a LXA4 analog (see FIG. 1).

PMN = experiment: PMA- or FMLP-stimulated O2- production by PMN; assay type: cell-based, human
IL-1β [1] = experiment: TNFα-induced IL-1β release by human PMN; assay type: cell-based; conditions: for inhibition of IL-1β release: 100 nM compound, human PMN
Source text: Supernatants were collected, and IL-1β was quantitated by ELISA. Results are expressed as mean±SD of duplicates, and are from one experiment representative of n=3. […] Values represent the mean ±SEM, n=3. At all time intervals tested, TNFα induced a significant appearance of IL-1β over vehicle-treated cells (*p<0.01).
(§1) Human and mouse recombinant TNFα and human recombinant GM-CSF were obtained from Boehringer Mannheim (Indianapolis, Ind.). Dulbecco's PBS (Mg^++ and Ca^++-free), RPMI-1640 and FCS were purchased from Bio Whittaker Inc. (Walkersville, Md.). Ficoll-Hypaque was from Organon Teknika Corp. (Durham, N.C.) and Hank's balanced salt solution was purchased from Gibco BRL (Grand Island, N.Y.). Serum bovine albumin, dextran, antibiotics, L-glutamine, cytochrome C, superoxide dismutase and zymosan were obtained from Sigma (St. Louis, Mo.). The assessment of human IL-1β in supernatants was performed by using an immunometric assay with acetylcholine esterase (Cayman Chemical, Ann Arbor, Mich.). Murine IL-1β was assessed using an ELISA from Endogen (Woburn, Mass.). ELISAs for IL-4 and IL-10 were from Amersham (Arlington Heights, Ill.); MIP-2 and IL-13 ELISAs were from R&D Systems (Minneapolis, Minn.). LXA4 and ATL metabolically stable analogs were prepared and characterized, including nuclear magnetic resonance spectroscopy, as in (14). Concentrations of each LX analog were determined using an extinction coefficient of 50,000 M^−1.cm^−1.just prior to each experiment. Where indicated, statistical analyses were performed using Student's non-paired t-test (two-tailed), and significance (*) was considered to be attained when P was <0.05.

LXA4 receptor = LXA4 receptor (Homo sapiens, UniProt P25090); experiment: Involvement of LXA4 receptor in TNFα-stimulated IL-1β release (anti-LXA4-R antibodies)
Chain of LXA4 receptor (P25090 whole entry): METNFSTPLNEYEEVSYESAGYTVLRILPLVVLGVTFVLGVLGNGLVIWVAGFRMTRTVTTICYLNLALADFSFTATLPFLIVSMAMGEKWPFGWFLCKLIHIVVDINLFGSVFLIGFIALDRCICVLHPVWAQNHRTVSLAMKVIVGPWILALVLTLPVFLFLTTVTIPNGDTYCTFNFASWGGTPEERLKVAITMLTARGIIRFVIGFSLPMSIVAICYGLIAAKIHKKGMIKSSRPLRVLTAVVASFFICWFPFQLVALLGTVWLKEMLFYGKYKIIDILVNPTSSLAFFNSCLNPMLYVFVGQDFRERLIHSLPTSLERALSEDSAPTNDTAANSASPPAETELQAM
Procedure: PMN were incubated with either IgG purified from pre-immune serum (50 μg/ml) or anti-LXA4 receptor (50 μg/ml) for 1 h at 4° C., then exposed to agonists for 12 h at 37° C. and 5% CO2. Values are expressed as mean±SD from an experiment performed in triplicate, which is representative of three distinct experiments each performed with different donors (*p<0.01).
PMN were incubated with ˜50 μg/ml of either preimmune protein-A purified IgG or IgG directed against LXA4-R for 1 h at 4° C. prior to exposure to TNFα (10 ng/ml) and 15 R/S-methyl-LXA4 (100 nM).

IL-1β messenger RNA = experiment: TNFα-triggered IL-1β gene expression in PMN (Northern blot); conditions: 100 nM compound plus TNFα 10 ng/ml; 6 h
Procedure: PMN were incubated with either 0.1% ethanol (vehicle) or 15 R/S-methyl-LXA4 at 10, 100, and 1000 nM, in the presence or absence of TNFα (10 ng/ml), for 6 h at 37° C. Northern blots were performed in order to detect IL-1β messenger RNA.
PMN were exposed to increasing concentrations of 15 R/S-methyl-LXA4, 16-phenoxy-LXA4 or native LXA4 in the presence of TNFα (10 ng/ml) or vehicle alone.

IL-1β [2] = experiment: IL-1β in murine air pouch exudates (ELISA); assay type: in vivo, BALB/c mice
Procedure: (§2) Experiments were conducted as described in FIG. 5 legend. Quantitation for IL-1β, IL-4, IL-10, IL-13 and MIP-2 was performed using ELISA with air pouch cell-free exudates. […] Changes in IL-1β, MIP-2 and IL-4 were significant at all tested time intervals (p<0.01).
as §1
(§3) Exudates from selected time intervals were collected and cell-free supernatants assessed for the presence of these murine cytokines. TNFα induced maximal detectable amounts of MIP-2 and IL-1β within 90 minutes (not shown). 15 R/S-methyl-LXA4 (25 mnoles) inhibited TNFα-stimulated MIP-2 and IL-1β release by 48% and 30% respectively (FIG. 6). […] This stimulation of IL-4 was observed both in the absence as well as presence of TNFα. Neither IL-10 nor IL-13 was detected within the pouch exudates.

MIP-2 = MIP-2 in murine air pouch exudates (ELISA); assay type: in vivo, BALB/c mice
Procedure: as §2, §1, §3

IL-4 = IL-4 in murine air pouch exudates (ELISA); assay type: in vivo, BALB/c mice; conditions: both in the absence as well as presence of TNFα
Procedure: as §2
as §1, with “ELISAs for IL-4 and IL-10 were from Amersham (Arlington Heights, Ill.); MIP-2 and IL-13 ELISAs were from R&D Systems (Minneapolis, Minn.). LXA4 and ATL metabolically stable analogs were prepared and characterized, including nuclear magnetic resonance spectroscopy, as in (14).” left out, “Where indicated, statistical analyses were performed using Student's non-paired t-test (two-tailed), and significance (*) was considered to be attained when P was <0.05.” left out
Exudates from selected time intervals were collected and cell-free supernatants assessed for the presence of these murine cytokines. […] Neither IL-10 nor IL-13 was detected within the pouch exudates.

leukocyte infiltration = experiment: TNFα-induced leukocyte infiltration in murine air pouches
Procedure: One ml of sterile PBS containing either 0.1% ethanol, TNFα, 15 R/S-methyl-LXA4, or TNFα plus 15 R/S-methyl-LXA4 was injected into the pouches, and the exudates were collected at indicated time periods. The total number of leukocytes was counted as in Materials & Methods. The results are expressed as mean±SEM from three different mice for each point.
Six to eight week old male BALB/c mice were obtained from Taconic Farms (Germantown, N.Y.). Air pouches were raised on the dorsum by s.c. injection of 3 ml of sterile air on day 0 and day 3. All experiments were conducted on day 6 (16). Individual air pouches (one per mouse) were injected with either vehicle alone (0.1% ethanol), TNFα, 15 R/S-methyl-LXA4 or TNFα plus 15 R/S-methyl-LXA4, and each was suspended in 1 ml endotoxin-free PBS immediately before injection into pouch cavities. At given intervals, the mice were sacrificed and individual air pouches were lavaged three times with sterile PBS (1 ml). The exudates were centrifuged at 2000 RPM (5 min) and the supernatants were removed. Cell pellets were suspended in PBS (200 μl) for enumeration and assessed for viability. Fifty μl of each cell suspension was mixed with 150 μl 30% BSA and then centrifuged onto microscope slides at 500 RPM for 5 min using a cytospin centrifuge, air dried, and stained with Giemsa-Wright.
Also, inflammatory exudates were collected 4 h after injection with vehicle alone, TNFα, 15 R/S-methyl-LXA4 alone, or TNFα plus 15 R/S-methyl-LXA4, and cell types were enumerated.

IL-1β [3] = experiment: IL-1β levels in supernatants of PMN incubated with TNFα, GM-CSF or zymosan; assay type: cell-based, human
Source text: as §1, with “<0.05. […]” for “<0.05.”

[4] = 25 mnoles, air pouch exudates (FIG. 6)
[5] = compound 25 nmoles plus TNFα 10 ng, 4 h post-injection
[6] = injected alone, 4 h post-injection, TNFα 10 ng or compound 25 nmoles

Compound: CCCCC[C@H](O)/C=C/C=C\C=C\C=C\[C@@H](O)[C@@H](O)CCCC(=O)O (relative stereo) [LXA4, 5S, 6R, 15S-trihydroxy-7,9,13-trans-11-cis-eicosatetraenoic acid, reference compound]
- inhibition of TNFα-stimulated superoxide anion generation (human PMN): 34.3±2.3%
- inhibition of FMLP-stimulated O2- production (PMN): neither LXA4 nor its analogs inhibit
- inhibition of PMA-stimulated O2- production (PMN; PMA 100 nM, n=3): neither LXA4 nor its analogs inhibit
- inhibition of IL-1β release (IL-1β [1]; TNFα 10 ng/ml): comparable
- effect on TNFα-induced IL-1β release (IL-1β [1]; LXA4 100 nM, TNFα 10 ng/ml, 20 h (FIG. 2A)): specifically inhibited

Compound: CCCCCC(C)(O)/C=C/C=C\C=C\C=C\[C@@H](O)[C@@H](O)CCCC(=O)OC (stereo partly drawn) [15 R/S-methyl-LXA4, 15R/S-methyl-LXA4-methyl ester]
- inhibition of IL-1β release (LXA4 receptor; 100 nM compound, TNFα 10 ng/ml, 12 h (FIG. 4)): about 50%
- IL-1β appearance when added together with anti-LXA4-R antibodies in the presence of TNFα (LXA4 receptor; 100 nM compound, antibodies ~50 μg/ml): did not further inhibit IL-1β appearance
- stimulation of IL-1β appearance within supernatants, agent alone (LXA4 receptor; without TNFα): neither anti-LXA4-R antibodies nor 15 R/S-LXA4 alone stimulated significant amounts of IL-1β
- potency relative to native LXA4 as inhibitor of TNFα-stimulated superoxide generation (human PMN): approximately three times more potent
- inhibition of TNFα-stimulated superoxide anion generation (human PMN): 81.3±14.1%
- decrease of IL-1β messenger RNA levels compared to TNFα alone (IL-1β messenger RNA): approximately 60%
- inhibition of TNFα-stimulated IL-1β release (IL-1β [2]; [4]): 30%
- IL-1β release, compound alone in the air pouch (IL-1β [2]; without TNFα): did not stimulate
- inhibition of TNFα-stimulated MIP-2 release (MIP-2; [4]): 48%
- MIP-2 release, compound alone in the air pouch (MIP-2; without TNFα): did not stimulate
- inhibition of TNFα-induced IL-1β release (IL-1β [1]; 10 nM compound, TNFα 10 ng/ml (FIG. 2B)): clear statistically significant inhibition
- time within which inhibition of IL-1β release was evident (IL-1β [1]; 10 nM compound, more prominent after 24 h): ≤ 6 h
- inhibition of IL-1β release (IL-1β [1]; TNFα 10 ng/ml): approximately 60%
- appearance of IL-4 within the exudates (IL-4): stimulated the appearance of IL-4
- time at which inhibition of leukocyte recruitment was evident (leukocyte infiltration; 25 nmoles): 1 h
- inhibition of TNFα-stimulated recruitment of leukocytes to the air pouch (leukocyte infiltration; 25 nmoles into pouch, murine TNFα 10 ng/ml (FIG. 5)): 62%
- leukocyte infiltration at 8 h (leukocyte infiltration; 8 h, 25 nmoles (FIG. 5, insert)): remained significantly reduced
- reduction in leukocyte infiltration (leukocyte infiltration; between 2 h and 4 h, 25 nmoles): more than 60%
- Number of leukocytes present in the pouch: Eosinophils/Basophils (leukocyte infiltration; [5]): 0.13 ± 0.01 x 10^6
- Number of leukocytes present in the pouch: Monocytes/Macrophages (leukocyte infiltration; [5]): 0.10 ± 0.01 x 10^6
- Number of leukocytes present in the pouch: Neutrophils (leukocyte infiltration; [5]): 0.98 ± 0.10 x 10^6
- Percent inhibition of TNFα-induced infiltration: Eosinophils/Basophils (leukocyte infiltration; [5]): (56.0%)
- Percent inhibition of TNFα-induced infiltration: Monocytes/Macrophages (leukocyte infiltration; [5]): (50%)
- Percent inhibition of TNFα-induced infiltration: Neutrophils (leukocyte infiltration; [5]): (59.1%)
- Number of leukocytes present in the pouch: Eosinophils/Basophils (leukocyte infiltration; [6]): 0.03 ± 0.01 x 10^6
- Number of leukocytes present in the pouch: Monocytes/Macrophages (leukocyte infiltration; [6]): 0.14 ± 0.01 x 10^6
- Number of leukocytes present in the pouch: Neutrophils (leukocyte infiltration; [6]): 0.25 ± 0.01 x 10^6
- leukocyte infiltration after injection of the analog alone (leukocyte infiltration; without TNFα): did not cause a significant leukocyte infiltration
- mononuclear cell influx, compound alone (leukocyte infiltration; without TNFα, 4 h): small but statistically significant increase

Compound: COC(=O)CCCC(O)C(O)C=CC=CC=CC=CC(O)COc1ccccc1 (stereo not drawn) [16-phenoxy-LXA4, 16 phenoxy-lipoxin A4 methyl ester]
- potency relative to native LXA4 as inhibitor of TNFα-stimulated superoxide generation (human PMN): approximately three times more potent
- inhibition of TNFα-stimulated superoxide anion generation (human PMN): 93.7±3.2%
- inhibition of IL-1β release (IL-1β [1]; TNFα 10 ng/ml): approximately 40%

Compound: GM-CSF: human recombinant GM-CSF, agonist of IL-1β release
- approximate EC50 for increase in IL-1β levels in supernatants (IL-1β [3]; agonist GM-CSF): ~10 U/ml

Compound: TNFα [reference compound]
- time to maximal detectable amounts of IL-1β (IL-1β [2]; TNFα-injected pouches): ≤ 90 min
- time to maximal detectable amounts of MIP-2 (MIP-2; TNFα-injected pouches): ≤ 90 min
- approximate EC50 for increase in IL-1β levels in supernatants (IL-1β [3]; agonist TNFα): ~10 ng/mL
- Number of leukocytes present in the pouch: Eosinophils/Basophils (leukocyte infiltration; [6]): 0.30 ± 0.01 x 10^6
- Number of leukocytes present in the pouch: Monocytes/Macrophages (leukocyte infiltration; [6]): 0.20 ± 0.01 x 10^6
- Number of leukocytes present in the pouch: Neutrophils (leukocyte infiltration; [6]): 2.40 ± 0.10 x 10^6
- time of maximal accumulation of leukocytes in the air pouch (leukocyte infiltration; murine TNFα 10 ng/ml): 4 h
